In ChEMBL document CHEMBL5032495, “Discovery of Novel Tacrine-Pyrimidone Hybrids as Potent Dual AChE/GSK-3 Inhibitors for the Treatment of Alzheimer's Disease” (J Med Chem, 2021):
Active and inactive are the calls of the source. The rule behind the calls is not given here.

Assays:
Acetylcholinesterase = target: T1, Acetylcholinesterase (Mus musculus, UniProt P21836); experiment: Inhibition of mouse AChE using acetylthiocholine iodide as substrate incubated for 20 mins by Ellman's method
T1 sequence (P21836 whole entry): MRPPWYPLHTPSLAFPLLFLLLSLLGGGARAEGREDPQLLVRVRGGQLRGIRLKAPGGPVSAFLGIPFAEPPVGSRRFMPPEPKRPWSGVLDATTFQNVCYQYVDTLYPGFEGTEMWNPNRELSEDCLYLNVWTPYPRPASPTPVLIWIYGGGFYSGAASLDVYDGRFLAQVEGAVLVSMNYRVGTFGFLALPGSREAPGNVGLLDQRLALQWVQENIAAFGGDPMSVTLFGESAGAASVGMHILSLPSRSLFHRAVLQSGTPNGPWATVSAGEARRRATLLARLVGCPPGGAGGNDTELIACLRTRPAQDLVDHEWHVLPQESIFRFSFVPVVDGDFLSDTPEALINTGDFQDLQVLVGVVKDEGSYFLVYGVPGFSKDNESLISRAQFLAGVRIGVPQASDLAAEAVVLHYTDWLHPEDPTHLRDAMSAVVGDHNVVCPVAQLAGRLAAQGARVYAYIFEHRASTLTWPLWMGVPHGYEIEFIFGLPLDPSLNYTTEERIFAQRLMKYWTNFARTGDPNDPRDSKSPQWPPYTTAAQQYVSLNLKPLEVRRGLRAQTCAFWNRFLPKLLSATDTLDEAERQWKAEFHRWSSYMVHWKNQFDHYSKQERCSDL

[1] = target: T2, Glycogen synthase kinase-3 beta (Homo sapiens, UniProt P49841)
Target sequence in this assay (P49841 whole entry): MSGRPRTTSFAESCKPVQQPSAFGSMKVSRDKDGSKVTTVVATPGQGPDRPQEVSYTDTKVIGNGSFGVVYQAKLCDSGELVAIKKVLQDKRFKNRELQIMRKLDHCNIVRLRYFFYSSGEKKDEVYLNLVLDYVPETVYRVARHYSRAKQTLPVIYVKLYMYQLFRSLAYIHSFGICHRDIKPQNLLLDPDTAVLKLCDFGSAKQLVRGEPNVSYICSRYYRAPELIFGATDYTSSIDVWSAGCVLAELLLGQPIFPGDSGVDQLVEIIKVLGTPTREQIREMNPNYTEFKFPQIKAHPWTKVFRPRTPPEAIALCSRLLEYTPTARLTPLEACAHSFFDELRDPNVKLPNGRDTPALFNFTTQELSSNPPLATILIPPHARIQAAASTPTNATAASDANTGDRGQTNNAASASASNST

[2] = target: T2, Glycogen synthase kinase-3 beta; experiment: Inhibition of human recombinant GSK-3beta using prephosphorylated polypeptide as substrate incubated for 30 mins in presence of ATP by Kinase-Glo luminescence assay relative to control
Target sequence in this assay (P49841 whole entry, looked up): as the sequence (P49841 whole entry) above

[3] = Toxicity in ICR mouse assessed as emesis at 15 mg/kg, ip measured after 15 days; assay type: organism-based; settings: in vivo, 360 h, time 15 day
[4] = Toxicity in ICR mouse assessed as diarrhea at 15 mg/kg, ip measured after 15 days; assay type: organism-based; settings: in vivo, 360 h, time 15 day
[5] = Toxicity in ICR mouse assessed as swimming motility impairment at 15 mg/kg, ip measured after 15 days; assay type: organism-based; settings: in vivo, 360 h, time 15 day
[6] = target: T3, Acetylcholinesterase (Mus musculus) (UniProt P21836); experiment: Inhibition of mouse AChE using acetylthiocholine iodide as substrate at 1 uM incubated for 20 mins by Ellman's method relative to control
T3 sequence (whole entry): T1 sequence (P21836 whole entry)

SH-SY5Y [7] = experiment: Neuroprotective activity against glyceraldehyde-induced neurotoxicity in human SH-SY5Y cells assessed as increase in cell viability at 0.5 to 5 uM incubated for 24 hrs by MTT assay; assay type: functional, cell-based; settings: dose 0.5-5 µM
SH-SY5Y [8] = experiment: Neuroprotective activity in human SH-SY5Y cells assessed as prevention of glyceraldehyde-induced neurite shortening at 0.5 to 5 uM incubated for 1 hr by confocal microsocopic analysis; assay type: functional, cell-based; settings: dose 0.5-5 µM

Structure (SMILES)	IC50 (Acetylcholinesterase) [µM]	IC50 [1] [µM]	inhibition [2] [%]	also measured
Cn1c(NCCCCCCNc2c3c(nc4cc(F)ccc24)CCCC3)nc(-c2ccncc2F)cc1=O	134	174	–	–
Cn1c(NCCCCCCNc2c3c(nc4ccc(F)cc24)CCCC3)nc(-c2ccncc2F)cc1=O	2210	154	–	–
COc1ccc2nc3c(c(NCCNc4nc(-c5ccncc5)cc(=O)n4C)c2c1)CCCC3	15.7	–	< 50	–
Cn1c(NCCCCCCNc2c3c(nc4ccc(F)cc24)CCCC3)nc(-c2ccncc2)cc1=O	2420	–	< 60	–
Cc1ccc2nc3c(c(NCCNc4nc(-c5ccncc5)cc(=O)n4C)c2c1)CCCC3	20	–	< 50	–
Cn1c(NCCNc2c3c(nc4ccc(Cl)cc24)CCCC3)nc(-c2ccncc2F)cc1=O	9.8	8.13	–	–
Cn1c(NCCCCNc2c3c(nc4ccccc24)CCCC3)nc(-c2ccncc2)cc1=O	1.42	0.92	–	–
Cn1c(NCCCCCCCNc2c3c(nc4ccc(F)cc24)CCCC3)nc(-c2ccncc2)cc1=O	1800	–	< 60	–
Cn1c(NCCNc2c3c(nc4ccccc24)CCCC3)nc(-c2ccncn2)cc1=O	0.8	5.63	–	–
Cn1c(NCCCNc2c3c(nc4ccccc24)CCCC3)nc(-c2ccncc2)cc1=O	2.85	–	< 50	–
Cn1c(NCCCCCCNc2c3c(nc4cc(Cl)ccc24)CCCC3)nc(-c2ccncc2F)cc1=O	52.7	178	–	–
Cn1c(NCCCCCCNc2c3c(nc4ccccc24)CCCC3)nc(-c2ccncc2)cc1=O	0.12	0.52	–	–
Cn1c(NCCNc2c3c(nc4cc(Cl)ccc24)CCCC3)nc(-c2ccncn2)cc1=O	0.42	–	< 50	–
Cn1c(NCCCCCCNc2c3c(nc4cc(Cl)ccc24)CCCC3)nc(-c2ccncc2)cc1=O	53	–	< 60	–
Cn1c(NCCCCCCCNc2c3c(nc4cc(Cl)ccc24)CCCC3)nc(-c2ccncc2)cc1=O	37.5	–	< 60	–
Cc1ccc2c(NCCCCCCNc3nc(-c4ccncc4F)cc(=O)n3C)c3c(nc2c1)CCCC3	298	239	–	–
Cn1c(NCCCCCCCNc2c3c(nc4ccccc24)CCCC3)nc(-c2ccncc2F)cc1=O	352	67.2	–	–
Cn1c(NCCNc2c3c(nc4ccc(Cl)cc24)CCCC3)nc(-c2ccncc2)cc1=O	10.9	–	< 50	–
Cc1ccc2c(NCCCCCCCNc3nc(-c4ccncc4)cc(=O)n3C)c3c(nc2c1)CCCC3	145	–	< 60	–
Cn1c(NCCNc2c3c(nc4ccc(Cl)cc24)CCCC3)nc(-c2ccncn2)cc1=O	18.8	–	< 50	–
Cc1ccc2c(NCCNc3nc(-c4ccncc4)cc(=O)n3C)c3c(nc2c1)CCCC3	1.89	–	< 50	–
Cn1c(NCCNc2c3c(nc4ccc(F)cc24)CCCC3)nc(-c2ccncc2)cc1=O	0.37	–	< 50	–
Cn1c(NCCCCCCNc2c3c(nc4cc(F)ccc24)CCCC3)nc(-c2ccncc2)cc1=O	163	–	< 60	–
Cn1c(NCCNc2c3c(nc4ccccc24)CCCC3)nc(-c2ccncc2F)cc1=O	4.98	1.18	–	–
Cn1c(NCCCCCCCNc2c3c(nc4ccc(F)cc24)CCCC3)nc(-c2ccncc2F)cc1=O	2380	96.1	–	–
Cn1c(NCCNc2c3c(nc4cc(Cl)ccc24)CCCC3)nc(-c2ccncc2F)cc1=O	0.16	14	–	–

Structure (SMILES)	IC50 (Acetylcholinesterase) [µM]	IC50 [1] [µM]	inhibition [2] [%]	also measured
Cn1c(NCCCCCCCNc2c3c(nc4cc(F)ccc24)CCCC3)nc(-c2ccncc2)cc1=O	124	–	< 60	–
Cn1c(NCCCCCCCNc2c3c(nc4ccccc24)CCCC3)nc(-c2ccncc2)cc1=O	0.13	0.33	–	Activity [3]: Non-Toxic; Activity [4]: Non-Toxic; Activity [5]: Non-Toxic
Cn1c(NCCNc2c3c(nc4ccc(C(C)(F)F)cc24)CCCC3)nc(-c2ccncc2)cc1=O	–	–	< 50	inhibition [6]: < 50%
Cn1c(NCCCCCCNc2c3c(nc4cc(Br)ccc24)CCCC3)nc(-c2ccncc2)cc1=O	45	–	< 60	–
Cn1c(NCCNc2c3c(nc4cc(F)ccc24)CCCC3)nc(-c2ccncn2)cc1=O	0.18	–	< 50	–
COc1ccc2c(NCCNc3nc(-c4ccncc4F)cc(=O)n3C)c3c(nc2c1)CCCC3	9.92	19	–	–
Cc1ccc2c(NCCCCCCNc3nc(-c4ccncc4)cc(=O)n3C)c3c(nc2c1)CCCC3	239	–	< 60	–
Cn1c(NCCCCCCNc2c3c(nc4ccccc24)CCCC3)nc(-c2ccncc2F)cc1=O	631	126	–	–
Cn1c(NCCNc2c3c(nc4cc(Cl)ccc24)CCCC3)nc(-c2ccncc2)cc1=O	0.49	–	< 50	–
Cn1c(NCCCCCCCNc2c3c(nc4cc(Br)ccc24)CCCC3)nc(-c2ccncc2F)cc1=O	58.1	91	–	–
Cn1c(NCCNc2c3c(nc4cc(F)ccc24)CCCC3)nc(-c2ccncc2)cc1=O	3.9	–	< 50	–
COc1ccc(CNC(=O)Nc2ncc([N+](=O)[O-])s2)cc1	> 40	–	–	–
Cn1c(NCCCCCCNc2c3c(nc4cc(Br)ccc24)CCCC3)nc(-c2ccncc2F)cc1=O	70.3	179	–	–
Cn1c(NCCNc2c3c(nc4cc(F)ccc24)CCCC3)nc(-c2ccncc2F)cc1=O	0.73	11.9	–	–
Cn1c(NCCCCCCCNc2c3c(nc4cc(Br)ccc24)CCCC3)nc(-c2ccncc2)cc1=O	39	–	< 60	–
Cn1c(NCCCCCNc2c3c(nc4ccccc24)CCCC3)nc(-c2ccncc2)cc1=O	0.4	1.28	–	–
COc1ccc2c(NCCNc3nc(-c4ccncc4)cc(=O)n3C)c3c(nc2c1)CCCC3	8.3	–	< 50	–
Cn1c(NCCNc2c3c(nc4ccc(Br)cc24)CCCC3)nc(-c2ccncc2)cc1=O	15.8	–	< 50	–
O=c1sn(-c2cccc3ccccc23)c(=O)n1Cc1ccccc1	–	–	–	Activity (SH-SY5Y [7]): Active; Activity (SH-SY5Y [8]): Active
Cn1c(NCCNc2c3c(nc4cc(Br)ccc24)CCCC3)nc(-c2ccncc2)cc1=O	0.44	–	< 50	–
COc1cc2c(cc1OC)C(=O)C(CC1CCN(Cc3ccccc3)CC1)C2 (stereo not given) [DONEPEZIL]	–	> 100	–	–
Cn1c(NCCCCCCCNc2c3c(nc4cc(F)ccc24)CCCC3)nc(-c2ccncc2F)cc1=O	134	104	–	–
Cc1ccc2c(NCCCCCCCNc3nc(-c4ccncc4F)cc(=O)n3C)c3c(nc2c1)CCCC3	174	137	–	–
COc1ccc2c(NCCNc3nc(-c4ccncn4)cc(=O)n3C)c3c(nc2c1)CCCC3	23	–	< 50	–
Cn1c(NCCNc2c3c(nc4ccccc24)CCCC3)nc(-c2ccncc2)cc1=O	1.06	4.04	–	–
Cn1c(NCCNc2c3c(nc4cc(C(F)(F)F)ccc24)CCCC3)nc(-c2ccncc2)cc1=O	11.3	–	< 50	–
